Experimental findings from patent US7638540B2, “Benzofuran compound and medicinal composition containing the same” (The New Industry Research Organization, priority 2003, dated 2009) are described below.

By melting point is commonly meant the temperature, or range, at which the solid turns liquid.

As to `CCNS(=O)(=O)c1ccc(OCCCC(=O)OCC)c2oc(C(C)NC(=O)c3cnoc3C)cc12` (centres unmarked) [Example 125, Ethyl 4-(4-ethylsulfamoyl-2-{1-[(5-methylisoxazole-4-carbonyl)amino]ethyl}benzofuran-7-yloxy)butyrate], the melting point lay within 88.1 to 90 °C.
`C/C(O)=C(\C#N)C(=O)Nc1c(C(=O)O)oc2ccccc12` [Example 92, (Z)-3-(2-cyano-3-hydroxy-2-butenoylamino)benzofurane-2-carboxylic acid] returned a melting point of 196.3 to 196.6 °C.
Consider `COc1ccc(CCNC(=O)/C=C(\C)c2ccc3oc(C(C)=O)cc3c2)cc1OC` [Example 26, (E)-3-(2-acetylbenzofuran-5-yl)-N-[2-(3,4-dimethoxyphenyl)ethyl]-2-butenamide], for which the melting point was in the range of 112.7 to 114.3 °C.
As to `COc1ccc(/C=C/C(=O)Nc2c(C(C)=O)oc3ccc(Br)cc23)cc1` [Example 178, (E)-N-(2-acetyl-5-bromobenzofuran-3-yl)-3-(4-methoxyphenyl)acrylamide], the melting point lay in the range of 182.5 to 184.7 °C.
The value for `CCOC(=O)c1oc2ccc(/C(C)=C/C(=O)N(CC)CC)cc2c1N` [Example 15, Ethyl (E)-3-amino-5-(2-diethylcarbamoyl-1-methylvinyl)benzofurane-2-carboxylate] was 159.5 to 162 °C.
For the molecule `N#C/C=C/C=C(\Cl)c1cc2cc(Br)ccc2o1` [Example 154, (2E,4Z)-5-(5-bromobenzofuran-2-yl)-5-chloropenta-2,4-dienenitrile], the melting point was 179 to 185 °C.
`CCCCc1oc2ccccc2c1/C(C)=C/C(=O)NCCc1ccc(OC)c(OC)c1` [Example 157, (E)-3-(2-butylbenzofuran-3-yl)-2-butenoic acid [2-(3,4-dimethoxyphenyl)ethyl]amide] displayed a melting point of 95 to 99 °C.
In turn, `O=C(CCCl)Nc1c(C(=O)/C=C/c2ccccc2)oc2ccc(Br)cc12` [Example 201, (E)-N-[5-bromo-2-(3-phenylacryloyl)-benzofuran-3-yl]-3-chloropropionamide] came in with a melting point of 204.7 to 206.8 °C.
In turn, `CC(=O)Nc1c(C(=O)/C=C/N(C)C)oc2ccc(Br)cc12` [Example 194, (E)-N-[5-bromo-2-(3-dimethylaminoacryloyl)benzofuran-3-yl]acetamide] showed a melting point of 221.1 to 222 °C.
Then `COc1cccc2cc(/C(Cl)=C/C=C/C#N)oc12` [Example 61, (2E,4Z)-5-chloro-5-(7-methoxybenzofuran-2-yl)penta-2,4-dienenitrile], with 98.9 to 101.2 °C; and `CCNS(=O)(=O)c1ccc(OCCCC(=O)OCC)c2oc(C(C)NC(=O)/C(C#N)=C(\C)O)cc12` (centres unmarked) [Example 128, Ethyl (E)-4-{2-[1-(2-cyano-3-hydroxy-2-butenoylamino)ethyl]-4-ethylsulfamoylbenzofuran-7-yloxy}butyrate], with 121 to 122.1 °C.
The molecule `COc1ccc(/C=C/C(=O)c2oc3ccc(Br)cc3c2NC(=O)CCCl)cc1` [Example 195, (E)-N-{5-bromo-2-[3-(4-methoxyphenyl)-acryloyl]benzofuran-3-yl}-3-chloropropionamide] displayed a melting point of 170.7 to 172 °C.
With `CCOC(=O)/C=C(\C)c1ccc2oc(/C(Cl)=C/C=O)cc2c1` [Example 146, Ethyl 3-[2-(1-chloro-3-oxo-(Z)-propenyl)benzofuran-5-yl]-(E)-2-butenoate], the melting point was in the range of 99.5 to 101 °C.
Molecule `CCN(CC)C(=O)/C=C(\C)c1cc2c(Br)cc(Br)c(OCCCC(=O)O)c2o1` [Example 31, (E)-4-[4,6-dibromo-2-(2-diethylcarbamoyl-1-methylvinyl)benzofuran-7-yloxy]butyric acid] gave a melting point of 121 to 123 °C.
For the molecule `C/C(O)=C(\C#N)C(=O)NC(C)c1cc2cccc(OCCCC(=O)O)c2o1` (centres unmarked) [Example 126, (Z)-4-{2-[1-(2-cyano-3-hydroxy-2-butenoylamino)ethyl]benzofuran-7-yloxy}butyric acid], the melting point lay in the range of 147.9 to 148.6 °C.
On to `COc1cc(C(=O)Nc2c(C(C)=O)oc3ccc(Br)cc23)cc(OC)c1OC` [Example 210, N-(2-acetyl-5-bromobenzofuran-3-yl)-3,4,5-trimethoxybenzamide], for which the melting point is 212 to 212.3 °C.
Molecule `CC(=O)c1cc2c(/C(C)=C/C(=O)N3CCN(Cc4ccccc4)CC3)ccc(OC(c3ccccc3)c3ccccc3)c2o1` [Example 12, (E)-3-(2-acetyl-7-benzhydryloxybenzofuran-4-yl)-1-(4-benzylpiperazin-1-yl)-2-buten-1-one] came in with a melting point of 132.1 to 136.5 °C.
As for `C/C(O)=C(\C#N)C(=O)Nc1c(C(N)=O)oc2ccccc12` [Example 101, (Z)-3-(2-cyano-3-hydroxy-2-butenoylamino)benzofurane-2-carboxamide], the melting point turned out to be 265 °C.
`CC(=O)OC(C)c1oc2ccccc2c1NC(=O)c1cnoc1C` (centres unmarked) [Example 76, 1-{3-[(5-methylisoxazole-4-carbonyl)amino]benzofuran-2-yl}ethyl acetate] had a melting point of 130.2 to 132.9 °C.
The value for `CCOC(=O)C(CSCc1ccccc1)NC(=O)/C=C/C=C(\Cl)c1cc2cccc(OCCCCl)c2o1` (centres unmarked) [Example 63, Ethyl (2E,4Z)-3-benzylsulfanyl-2-{5-chloro-5-[7-(3-chloropropoxy)benzofuran-2-yl]penta-2,4-dienoylamino}propionate] was 116.5 to 118.3 °C.
Then `C/C=C/C(=O)Nc1c(C(C)=O)oc2c(OC)cccc12` [Example 185, (E)-2-butenoic acid (2-acetyl-7-methoxybenzofuran-3-yl)amide], with 165.7 to 168 °C; and `CCCCc1oc2ccccc2c1/C(Cl)=C/C=C/C(=O)Nc1ccc(OC)cc1` [Example 135, (2E,4Z)-5-(2-butylbenzofuran-3-yl)-5-chloropenta-2,4-dienoic acid (4-methoxyphenyl)amide], with 91.3 to 93.2 °C; and `CCN(CC)C(=O)/C=C(\C)c1ccc2oc(C(=O)Nc3cccc(OC)c3)c(NC(=O)c3cnoc3C)c2c1` [Example 186, (E)-5-methyl-isoxazole-4-carboxylic acid [5-((E)-2-diethylcarbamoyl-1-methylvinyl)-2-(3-methoxyphenylcarbamoyl)benzofuran-3-yl]amide], with 204 to 206 °C.
`COc1ccc2oc(-c3csc(-c4ccccc4)n3)c(-c3ccc(Cl)cc3)c2c1` [Example 215, 4-[3-(4-chlorophenyl)-5-methoxybenzofuran-2-yl]-2-phenylthiazole]: the melting point was 151.3 to 153.3 °C.
For the molecule `COc1ccc2oc(-c3nc(N=CN(C)C)sc3/C=N/CCO)c(-c3ccc(Cl)cc3)c2c1` [Example 223, N′-{4-[3-(4-chlorophenyl)-5-methoxybenzofuran-2-yl]-5-[(2-hydroxyethylimino)methyl]thiazol-2-yl}-N,N-dimethylformamidine], the melting point was 167.8 to 169.2 °C.
In the case of `CCOC(=O)CCCOc1cccc2cc(/C(Cl)=C/C=O)oc12` [Example 140, Ethyl 4-[2-(1-chloro-3-oxopropenyl)benzofuran-7-yloxy]-butyrate], the melting point is 67 to 69.5 °C.
`CCN(CC)C(=O)/C=C(\C)c1ccc2oc(C(=O)c3ccc(C#N)cc3)c(N)c2c1` [Example 22, (E)-3-[3-amino-2-(4-cyanobenzoyl)benzofuran-5-yl]-N,N-diethyl-2-butenamide] registered a melting point of 216.4 to 218.4 °C.
The value for `COc1ccc(NC(=O)/C=C(\C)c2cc3cccc(OC(c4ccccc4)c4ccccc4)c3o2)cc1` [Example 41, (E)-3-(7-benzhydryloxybenzofuran-2-yl)-N-(4-methoxyphenyl)-2-butenamide] was 191.8 to 193.6 °C; that for `COc1cccc(NC(=O)/C=C(\C)c2cc3c(Br)ccc(OCCN(C)C)c3o2)c1` [Example 39, (E)-3-[4-bromo-7-(2-dimethylaminoethoxy)benzofuran-2-yl]-N-(3-methoxyphenyl)-2-butenamide] was 176.4 to 181.5 °C; that for `COc1ccc(NC(=O)/C=C(\C)c2oc3c(Cl)cccc3c2-c2ccc(Cl)cc2)cc1` [Example 143, (E)-3-[7-chloro-3-(4-chlorophenyl)benzofuran-2-yl]-2-butenoic acid (4-methoxyphenyl)-amide] was 168.9 to 170 °C.
Molecule `COc1cccc2c(NC(C)=O)c(C(C)=O)oc12` [Example 208, N-(2-acetyl-7-methoxybenzofuran-3-yl)acetamide] returned a melting point of 206.6 to 209.5 °C.
As to `COc1cccc2c(NC(=O)c3cnoc3C)c(C(C)=O)oc12` [Example 80, N-(2-acetyl-7-methoxybenzofuran-3-yl)-5-methylisoxazole-4-carboxamide], the melting point was 181 to 181.7 °C.
Molecule `C/C=C/C(=O)Nc1c(Cl)oc2c(OC)cccc12` [Example 187, (E)-2-butenoic acid (2-chloro-7-methoxybenzofuran-3-yl)amide] yielded a melting point of 216 to 217 °C.
Take `COc1cccc2c(NC(=O)c3cnoc3C)c(C(=O)c3ccc(Cl)cc3)oc12` [Example 82, N-[2-(4-chlorobenzoyl)-7-methoxybenzofuran-3-yl]-5-methylisoxazole-4-carboxamide]: the melting point was in the range of 237.4 to 239.5 °C.
Then `COc1cccc2c(NC(=O)/C=C/c3ccccc3)c(C(C)=O)oc12` [Example 182, (E)-N-(2-acetyl-7-methoxybenzofuran-3-yl)-3-phenylacrylamide], with 160.6 to 161.1 °C; and `CC(=O)c1cc2cc(/C(C)=C/C(=O)N3CCOCC3)ccc2o1` [Example 27, (E)-3-(2-acetylbenzofuran-5-yl)-1-morpholino-2-buten-1-one], with 138.9 to 141.8 °C; and `CC(=O)c1oc2ccccc2c1NC(=O)/C(C#N)=C(/C)O` [Example 66, (Z)-N-(2-acetylbenzofuran-3-yl)-2-cyano-3-hydroxy-2-butenamide], with 206.1 to 208.1 °C.
`COc1ccc(NC(=O)c2cnoc2C)c2cc(C(C)=O)oc12` [Example 111, N-(2-acetyl-7-methoxybenzofuran-4-yl)-5-methylisoxazole-4-carboxamide] gave a melting point of 201.8 to 205.9 °C.
